The target in the assay is T1, catalytic domain of human Bub1 (amino acids 704-1085) (Homo sapiens, UniProt O43683).
T1 construct: catalytic domain of human Bub1 (amino acids 704-1085); His6 (N); made in house; host or cells: Hi5 insect cells
In words: Bub1 kinase assay (TR-FRET). It is filed as biochemical. The note with it: TR-FRET; ATP 10 μM, peptide substrate 1 μM; 60 min at 22° C.; average or median if tested more than once; read-out: Inhibition of Bub1 kinase IC50. The text has this:
Bub1-inhibitory activities of compounds described in the present invention were quantified using a time-resolved fluorescence energy transfer (TR-FRET) kinase assay which measures phosphorylation of the synthetic peptide Biotin-Ahx-VLLPKKSFAEPG (C-terminus in amide form), purchased from e.g. Biosyntan (Berlin, Germany) by the (recombinant) catalytic domain of human Bub1 (amino acids 704-1085), expressed in Hi5 insect cells with an N-terminal His6-tag and purified by affinity—(Ni-NTA) and size exclusion chromatography.
In a typical assay 11 different concentrations of each compound (0.1 nM, 0.33 nM, 1.1 nM, 3.8 nM, 13 nM, 44 nM, 0.15 μM, 0.51 μM, 1.7 μM, 5.9 μM and 20 μM) were tested in duplicate within the same microtiter plate. To this end, 100-fold concentrated compound solutions (in DMSO) were previously prepared by serial dilution (1:3.4) of 2 mM stocks in a clear low volume 384-well source microtiter plate (Greiner Bio-One, Frickenhausen, Germany), from which 50 nl of compounds were transferred into a black low volume test microtiter plate from the same supplier. Subsequently, 2 μL of Bub1 (the final concentration of Bub1 was adjusted depending on the activity of the enzyme lot in order to be within the linear dynamic range of the assay: typically ˜200 ng/mL were used) in aqueous assay buffer [50 mM Tris/HCl pH 7.5, 10 mM magnesium chloride (MgCl2), 200 mM potassium chloride (KCl), 1.0 mM dithiothreitol (DTT), 0.1 mM sodium ortho-vanadate, 1% (v/v) glycerol, 0.01% (w/v) bovine serum albumine (BSA), 0.005% (v/v) Trition X-100 (Sigma), 1× Complete EDTA-free protease inhibitor mixture (Roche)] were added to the compounds in the test plate and the mixture was incubated for 15 min at 22° C. to allow pre-equilibration of the putative enzyme-inhibitor complexes before the start of the kinase reaction, which was initiated by the addition of 3 μL 1.67-fold concentrated solution (in assay buffer) of adenosine-tri-phosphate (ATP, 10 μM final concentration) and peptide substrate (1 μM final concentration). The resulting mixture (5 μL final volume) was incubated at 22° C. during 60 min., and the reaction was stopped by the addition of 5 μL of an aqueous EDTA-solution (50 mM EDTA, in 100 mM HEPES pH 7.5 and 0.2% (w/v) bovine serum albumin) which also contained the TR-FRET detection reagents (0.2 μM streptavidin-XL665 [Cisbio Bioassays, Codolet, France] and 1 nM anti-phospho-Serine antibody [Merck Millipore, cat. #35-002] and 0.4 nM LANCE EU-W1024 labeled anti-mouse IgG antibody [Perkin-Elmer, product no. AD0077, alternatively a Terbium-cryptate-labeled anti-mouse IgG antibody from Cisbio Bioassays can be used]). The stopped reaction mixture was further incubated 1 h at 22° C. in order to allow the formation of complexes between peptides and detection reagents. Subsequently, the amount of product was evaluated by measurement of the resonance energy transfer from the Eu-chelate-antibody complex recognizing the Phosphoserine residue to the streptavidin-XL665 bound to the biotin moiety of the peptide. To this end, the fluorescence emissions at 620 nm and 665 nm after excitation at 330-350 nm were measured in a TR-FRET plate reader, e.g. a Rubystar or Pherastar (both from BMG Labtechnologies, Offenburg, Germany) or a Viewlux (Perkin-Elmer) and the ratio of the emissions (665 nm/[…]) was taken as indicator for the amount of phosphorylated substrate. The data were normalised using two sets of control wells for high—(=enzyme reaction without inhibitor=0%=Minimum inhibition) and low—(=all assay components without enzyme=100%=Maximum inhibition) Bub1 activity. IC50 values were calculated by fitting the normalized inhibition data to a 4-parameter logistic equation (Minimum, Maximum, IC50, Hill; Y=Max+(Min−Max)/(1+(X/IC50)Hill)).
Background: In TR-FRET formats the signal depends on donor and acceptor labels being close together.

The structures appear in SMILES notation.

What is called IC50 is the concentration at which inhibition is half-maximal.

T1 sequence (O43683 704-1085): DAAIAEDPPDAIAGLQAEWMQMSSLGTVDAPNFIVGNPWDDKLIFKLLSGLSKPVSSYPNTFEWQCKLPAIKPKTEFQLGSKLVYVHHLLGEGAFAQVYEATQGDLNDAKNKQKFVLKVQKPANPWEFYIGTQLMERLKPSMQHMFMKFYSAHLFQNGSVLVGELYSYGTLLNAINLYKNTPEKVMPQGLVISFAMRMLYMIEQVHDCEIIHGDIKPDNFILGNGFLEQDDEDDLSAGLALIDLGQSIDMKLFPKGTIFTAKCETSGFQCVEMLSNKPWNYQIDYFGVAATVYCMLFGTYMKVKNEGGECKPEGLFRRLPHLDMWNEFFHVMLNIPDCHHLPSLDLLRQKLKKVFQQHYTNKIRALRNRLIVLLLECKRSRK

Regarding `O=C1CN(C(=O)N2CCCC2)Cc2[nH]c(-c3ccncc3)c(Nc3ccccc3)c21` [Example 92, 3-(phenylamino)-2-(pyridin-4-yl)-6-(pyrrolidin-1-ylcarbonyl)-1,5,6,7-tetrahydro-4H-pyrrolo[2,3-c]pyridin-4-one], the IC50 came out at 4 nM.

`CN(C)S(=O)(=O)N1CC(=O)c2c([nH]c(-c3ccnc(NC(=O)[C@@H]4C[C@@H]4F)c3)c2Nc2ccccc2)C1` [Example 272, (1S,2S)—N-4-[6-(Dimethylsulfamoyl)-4-oxo-3-(phenylamino)-4,5,6,7-tetrahydro-1H-pyrrolo[2,3-c]pyridin-2-yl]pyridin-2-yl-2-fluorocyclopropanecarboxamide]: the IC50 came out at 4 nM.

Turning to `O=C1C[S+]([O-])Cc2[nH]c(-c3ccncc3)c(Nc3ccccc3)c21` (stereo not drawn) [Example 20, 3-(phenylamino)-2-(pyridin-4-yl)-1,7-dihydrothiopyrano[3,4-b]pyrrol-4(5H)-one 6-oxide], the IC50 stood at 152 nM.

In the case of `CC(=O)Nc1cc(-c2[nH]c3c(c2Nc2ccc(F)cc2)C(=O)CN(C(=O)OC(C)(C)C)C3)ccn1` [Example 297, tert-Butyl 2-(2-acetamidopyridin-4-yl)-3-[(4-fluorophenyl)amino]-4-oxo-1,4,5,7-tetrahydro-6H-pyrrolo[2,3-c]pyridine-6-carboxylate], the IC50 was 55 nM.

On to `O=C1CN(S(=O)(=O)CCC(F)(F)F)Cc2[nH]c(-c3ccncc3)c(Nc3ccccc3)c21` [Example 69, 3-(phenylamino)-2-(pyridin-4-yl)-6-[(3,3,3-trifluoropropyl)sulfonyl]-1,5,6,7-tetrahydro-4H-pyrrolo[2,3-c]pyridin-4-one], for which the IC50 stood at 4 nM.

On to `CC(=O)Nc1cc(-c2[nH]c3c(c2Nc2ccccc2)C(=O)CN(C(=O)N2CCOCC2)C3)ccn1` [Example 125, N-{4-[3-Anilino-6-(morpholin-4-ylcarbonyl)-4-oxo-4,5,6,7-tetrahydro-1H-pyrrolo[2,3-c]pyridin-2-yl]pyridin-2-yl}acetamide], for which the 50% inhibitory concentration (IC50) worked out at 10 nM.

`CC(=O)Nc1cc(-c2[nH]c3c(c2Nc2ccccc2)C(=O)CN(S(=O)(=O)c2cnc[nH]2)C3)ccn1` [Example 117, N-{4-[6-(1H-Imidazol-5-ylsulfonyl)-4-oxo-3-(phenylamino)-4,5,6,7-tetrahydro-1H-pyrrolo[2,3-c]pyridin-2-yl]pyridin-2-yl}acetamide]: the IC50 was determined as 9 nM.

In the case of `CC(=O)Nc1cc(-c2[nH]c3c(c2Nc2ccc(F)cc2)C(=O)CNC3)ccn1` [Example 302, N-(4-{3-[(4-Fluorophenyl)amino]-4-oxo-4,5,6,7-tetrahydro-1H-pyrrolo[2,3-c]pyridin-2-yl}pyridin-2-yl)acetamide], the IC50 came to 297 nM.

Turning to `O=C1CN(C(=O)CCO)Cc2[nH]c(-c3ccncc3)c(Nc3ccccc3)c21` [Example 56, 6-(3-Hydroxypropanoyl)-3-(phenylamino)-2-(pyridin-4-yl)-1,5,6,7-tetrahydro-4H-pyrrolo[2,3-c]pyridin-4-one], the IC50 was 5 nM.

Turning to `CC(C)(C)OC(=O)N1CC(=O)c2c([nH]c(-c3ccnc(NC(=O)c4ccc(F)cc4)c3)c2Nc2ccccc2)C1` [Example 133, tert-Butyl 3-anilino-2-{2-[(4-fluorobenzoyl)amino]pyridin-4-yl}-4-oxo-1,4,5,7-tetrahydro-6H-pyrrolo[2,3-c]pyridine-6-carboxylate], the IC50 came to 28 nM.

For `CC(=O)Nc1cc(-c2[nH]c3c(c2Nc2ccccc2)C(=O)CN(S(=O)(=O)C2CCOCC2)C3)ccn1` [Example 173, N-{4-[3-Anilino-4-oxo-6-(tetrahydro-2H-pyran-4-ylsulfonyl)-4,5,6,7-tetrahydro-1H-pyrrolo[2,3-c]pyridin-2-yl]pyridin-2-yl}acetamide], the IC50 was found to be 6 nM.

Take `O=C(Nc1cc(-c2[nH]c3c(c2Nc2ccccc2)C(=O)COC3)ccn1)c1cscn1` [Example 49, N-{4-[4-Oxo-3-(phenylamino)-1,4,5,7-tetrahydropyrano[3,4-b]pyrrol-2-yl]pyridin-2-yl}-1,3-thiazole-4-carboxamide]: the IC50 worked out at 51 nM.

The values are drawn from patent publication US20200216439A1, “HETERO-1,5,6,7-TETRAHYDRO-4H-INDOL-4-ONES” (BAYER PHARMA AKTIENGESELLSCHAFT, priority 2015, published 2020).
